Source: paper PMC5986646
Counter-ions that a name gives are not always drawn. Like-named read-outs stand apart in the source and are kept apart here. Square brackets hold non-standard residues; d marks the D form. Peptide text beside a SMILES is read from it. dLac(3-vinyl) = C=CC[C@@H](O)C(=O)O; dHica = CC(C)C[C@@H](O)C(=O)O; NMeV = CN[C@H](C(=O)O)C(C)C; NMeA = CN[C@@H](C)C(=O)O; βAla = NCCC(=O)O

Columns and labels:
HCT116/dtxA cells [1] = assay: Cell viability assay (MTT, EZ4U); type: cell-based, human; settings: for IC50: n ≥ 3
HCT116/dtxE cells [2] = assay: Cell viability assay (MTT, EZ4U); type: cell-based, human; settings: for IC50: HCT116/dtxE, about one year of selection, MTT, mean (± SD), n ≥ 3; for relative resistance: mean IC50 HCT116/dtxE divided by IC50 HCT116/wt
HCT116/wt cells [3] = assay: Cell viability assay (MTT, EZ4U); type: cell-based, human; settings: mean (± SD) of at least three independent experiments in triplicates
HCT116/dtxB cells = assay: Cell viability assay (MTT, EZ4U); type: cell-based, human; settings: for IC50: n ≥ 3
HCT116/dtxA cells [4] = assay: Cell viability, dtxA combined with mevalonate pathway inhibitors, combination index; type: cell-based, human
BT20 = assay: Cell viability, dtxA combined with mevalonate pathway inhibitors; type: cell-based, human; settings: BT20, intrinsically low sensitivity, inhibitor with dtxA, 72 h
MCF7 = assay: as above; type: cell-based, human; settings: MCF7, intrinsically low sensitivity, inhibitor with dtxA, 72 h
parental HCT116 = assay: as above; type: cell-based, human; settings: parental HCT116, inhibitor with dtxA, 72 h
HCT116/wt cells [5] = assay: Annexin-V/PI staining (apoptosis/necrosis); type: cell-based, human; settings: 48 h, 5 μM dtxA, 2.5 μM dtxB, dtxE around the IC50 value, FACS
HCT116/wt cells [6] = assay: JC-1 mitochondrial membrane depolarization; type: cell-based, human; settings: parental cells, 48 h, JC-1, FACS
Procedure: (§1) Parental and dtx-resistant cells were seeded (1x10^5 cells/well in 6-well plates) and treated on the following day for 48 h with the indicated concentrations of dtxA, dtxB or dtxE. Next, the mitochondrial membrane potential (ΔΨm) was measured. In doing so, cells were detached by trypsinization, centrifuged with 300× g for 5 min at 4°C and stained with the fluorescent dye JC-1 (5,5’,6,6’-tetrachloro-1,1’,3’,3’-tetraethyl-benzimidazolylcarbocyanine iodide) for 10 min at 37°C. FACS analysis was performed according to the manufacturer’s instructions (Mitochondrial Membrane Potential detection Kit; Stratagene, La Jolla, CA, USA). To further compare apoptotic changes in the parental and resistant cells, Annexin V-APC/PI stainings were carried out.

[7] = system: resistant sublines (HCT116/dtxA, HCT116/dtxB, HCT116/dtxE); assay: JC-1 mitochondrial membrane depolarization; type: cell-based, human; settings: each destruxin in its respective resistant subline, 48 h, JC-1, FACS
Procedure: as §1

HCT116/wt cells [8] = assay: Whole-cell patch clamp, ionophoric activity; type: cell-based, human; settings: parental HCT116/wt, 20 μM dtxA, whole-cell mode, membrane potential -60 mV, RT
Procedure: (§2) Ionophoric activity of dtxA, dtxB and dtxE was determined by patch clamp experiments, performed as previously described. Briefly, ionic currents were recorded in whole-cell mode at RT. Glass electrodes with a resistance less than 5 MΩ were pulled with a DMZ universal puller and filled with intracellular solution (120 mM CsF, 20 mM CsCl, 5 mM EGTA, 5 mM HEPES; pH 7.4). HCT116/wt or resistant cells were perfused with extracellular solution (140 mM NaCl, 4 mM KCl, 1.8 mM CaCl2, 0.75 mM MgCl2, 5 mM HEPES; pH 7.4) in a 1 mL chamber. After obtaining a whole-cell configuration, cells were allowed to equilibrate for 5 min before recording any currents and then pulsed to -60 mV for 10 sec pulses. Data were filtered at 5 kHz and digitized at 10 kHz by using digidata 1440A. Traces were averaged and subtracted from control recording, in the presence or absence of 20 μM dtxA, dtxB or dtxE, to observe ionophoric activity.

HCT116/dtxA cells [9] = assay: Whole-cell patch clamp, ionophoric activity; type: cell-based, human; settings: resistant HCT116/dtxA, 20 μM dtxA, whole-cell mode, membrane potential -60 mV, RT
Procedure: as §2

HeLa cell derivative = system: HeLa cell derivative; design: method as in PMID 19517454; settings: 18 months selection period of a HeLa cell derivative; cited from earlier work
HCT116/dtxE cells [10] = settings: 10 μM verapamil or 1 μM cyclosporin A with increasing dtxE
[11] = HCT116/dtxA, about one year of selection, 72 h, MTT, mean (± SD)
[12] = HCT116/dtxB, about one year of selection, 72 h, MTT, mean (± SD)
[13] = HCT116/dtxA, inhibitor 24 h pretreatment, then dtxA 72 h, statins at concentrations above 2.5 μM, Chou-Talalay, CalcuSyn, CI < 1 synergism
[14] = mean IC50 HCT116/dtxA divided by IC50 HCT116/wt
[15] = mean IC50 HCT116/dtxB divided by IC50 HCT116/wt

Structure (SMILES): O=c1[nH]cc(F)c(=O)[nH]1 [5-FU]
- IC50 (HCT116/dtxA cells [1]; [11]): 36400 nM
- IC50 (HCT116/dtxE cells [2]; 72 h): 34700 nM
- IC50 (HCT116/wt cells [3]; 72 h): 52000 nM
- IC50 (HCT116/dtxB cells; [12]): 38900 nM

Structure (SMILES): CC(C)n1c(/C=C/C(O)CC(O)CC(=O)O)c(-c2ccc(F)cc2)c2ccccc21 (stereo not drawn) [fluvastatin, fluvastatin sodium salt hydrate]
- combination index (CI) in combination with dtxA (HCT116/dtxA cells [4]; [13]): smaller than 1
- effect on cytotoxic activity of dtxA (BT20): augmented
- effect on cytotoxic activity of dtxA (MCF7): augmented
- effect on cytotoxic activity of dtxA (parental HCT116): augmented

Structure (SMILES): NC(=S)N/N=C/c1ncccc1N [Triapin]
- IC50 (HCT116/dtxA cells [1]; [11]): 600 nM
- IC50 (HCT116/dtxE cells [2]; 72 h): 800 nM
- IC50 (HCT116/wt cells [3]; 72 h): 800 nM
- IC50 (HCT116/dtxB cells; [12]): 800 nM

Structure (SMILES): CC[C@@]1(O)C(=O)OCc2c1cc1n(c2=O)Cc2cc3c(CN(C)C)c(O)ccc3nc2-1 [Topotecan]
- IC50 (HCT116/dtxA cells [1]; Homo sapiens, HCT-116, HCT116/dtxA, about one year of selection, 72 h, MTT, mean (± SD)): 26 nM
- IC50 (HCT116/dtxE cells [2]; Homo sapiens, HCT-116, 72 h): 25 nM
- IC50 (HCT116/wt cells [3]; Homo sapiens, HCT-116, 72 h): 27.4 nM
- IC50 (HCT116/dtxB cells; Homo sapiens, HCT-116, HCT116/dtxB, about one year of selection, 72 h, MTT, mean (± SD)): 8.2 nM

Structure (SMILES): O=P(O)(O)C(O)(Cn1ccnc1)P(=O)(O)O [zoledronic acid, zoledronic acid monohydrate]
- combination index (CI) in combination with dtxA (HCT116/dtxA cells [4]): smaller than 1
- effect on cytotoxic activity of dtxA (BT20): augmented
- effect on cytotoxic activity of dtxA (MCF7): augmented
- effect on cytotoxic activity of dtxA (parental HCT116): augmented

Structure (SMILES): CC[C@H](C)[C@@H]1NC(=O)[C@@H]2CCCN2C(=O)[C@@H](CC(C)C)OC(=O)CCNC(=O)[C@H](C)N(C)C(=O)[C@H](C(C)C)N(C)C1=O [dtxB, destruxin B] (cyclo([dHica]PI[NMeV][NMeA][βAla]))
- percentages of early and/or late apoptotic cells (HCT116/wt cells [5]): markedly and significantly increased
- relative resistance (HCT116/dtxA cells [1]; [14]): 18.2 -fold
- relative resistance (HCT116/dtxE cells [2]): 0.3 -fold
- IC50 (HCT116/dtxB cells; HCT116/dtxB (unsel.), removed from drug selection for one month, 72 h, mean): > 100000 nM
- relative resistance (HCT116/dtxB cells; HCT116/dtxB vs HCT116/wt, month 4 after selection start): 4.4 -fold
- relative resistance (HCT116/dtxB cells; HCT116/dtxB vs HCT116/wt, month 6 after selection start): 4.2 -fold
- relative resistance (HCT116/dtxB cells; HCT116/dtxB vs HCT116/wt, month 8 after selection start): > 25 -fold
- relative resistance (HCT116/dtxB cells; HCT116/dtxB vs HCT116/wt, month 12 after selection start): > 40 -fold
- IC50 (HCT116/dtxB cells; [12]): > 100000 nM
- relative resistance (HCT116/dtxB cells; [15]): >40 -fold
- mitochondrial membrane depolarization (HCT116/wt cells [6]): only observed in parental cells
- mitochondrial membrane depolarization [7]: no significant increase

Structure (SMILES): C=CC[C@H]1OC(=O)CCNC(=O)[C@H](C)N(C)C(=O)[C@H](C(C)C)N(C)C(=O)[C@H]([C@@H](C)CC)NC(=O)[C@@H]2CCCN2C1=O [dtxA, destruxin A] (cyclo([dLac(3-vinyl)]PI[NMeV][NMeA][βAla]))
- percentages of early and/or late apoptotic cells (HCT116/wt cells [5]): markedly and significantly increased
- IC50 (HCT116/dtxA cells [1]; HCT116/dtxA (unsel.), removed from drug selection for one month, 72 h, mean): > 100000 nM
- relative resistance (HCT116/dtxA cells [1]; HCT116/dtxA vs HCT116/wt, month 6 after selection start): 3.5 -fold
- relative resistance (HCT116/dtxA cells [1]; HCT116/dtxA vs HCT116/wt, month 8 after selection start): > 20 -fold
- IC50 (HCT116/dtxA cells [1]; [11]): > 100000 nM
- relative resistance (HCT116/dtxA cells [1]; [14]): >28.6 -fold
- relative resistance (HCT116/dtxE cells [2]): 0.3 -fold
- relative resistance (HCT116/dtxB cells; [15]): 21.8 -fold
- mitochondrial membrane depolarization (HCT116/wt cells [6]): only observed in parental cells
- mitochondrial membrane depolarization [7]: no significant increase
- mean total current (pore forming ability) (HCT116/wt cells [8]): -0.7 pA/ms
- mean total current (pore forming ability) (HCT116/dtxA cells [9]): -0.2 pA/ms

Structure (SMILES): CC[C@]1(O)C[C@H]2CN(CCc3c([nH]c4ccccc34)[C@@](C(=O)OC)(c3cc4c(cc3OC)N(C=O)[C@H]3[C@@](O)(C(=O)OC)[C@H](OC(C)=O)[C@]5(CC)C=CCN6CC[C@]43[C@@H]65)C2)C1 [vincristine]
- cytotoxic activity compared to parental cells (reduction) (HCT116/dtxA cells [1]; HCT116/dtxA vs HCT116/wt, 72 h): absent
- cytotoxic activity compared to parental cells (HCT116/dtxE cells [2]; HCT116/dtxE vs HCT116/wt, 72 h): significantly reduced cytotoxic activity
- cytotoxic activity compared to parental cells (reduction) (HCT116/dtxB cells; HCT116/dtxB vs HCT116/wt, 72 h): very weak

Structure (SMILES): Nc1ccn([C@@H]2O[C@H](CO)[C@@H](O)C2(F)F)c(=O)n1 [Gemcitabin]
- IC50 (HCT116/dtxA cells [1]; [11]): 400 nM
- IC50 (HCT116/dtxE cells [2]; 72 h): 300 nM
- IC50 (HCT116/wt cells [3]; 72 h): 400 nM
- IC50 (HCT116/dtxB cells; [12]): 400 nM

Structure (SMILES): CC(C)[C@H]1OC(=O)[C@H](Cc2ccccc2)N(C)C(=O)[C@@H](C(C)C)OC(=O)[C@H](Cc2ccccc2)N(C)C(=O)[C@@H](C(C)C)OC(=O)[C@H](Cc2ccccc2)N(C)C1=O [Beauvericin]
- resistance obtained (HeLa cell derivative): no resistance

Structure (SMILES): N.N.[Cl][Pt][Cl] [Cisplatin]
- IC50 (HCT116/dtxA cells [1]; [11]): 1900 nM
- IC50 (HCT116/dtxE cells [2]; 72 h): 4400 nM
- IC50 (HCT116/wt cells [3]; 72 h): 4000 nM
- IC50 (HCT116/dtxB cells; [12]): 2200 nM

Structure (SMILES): O=C1[O][Pt]2([NH][C@@H]3CCCC[C@H]3[NH]2)[O]C1=O [Oxaliplatin]
- IC50 (HCT116/dtxA cells [1]; [11]): 500 nM
- IC50 (HCT116/dtxE cells [2]; 72 h): 400 nM
- IC50 (HCT116/wt cells [3]; 72 h): 800 nM
- IC50 (HCT116/dtxB cells; [12]): 1000 nM

Structure (SMILES): CC[C@H](C)C(=O)O[C@H]1C[C@@H](C)C=C2C=C[C@H](C)[C@H](CC[C@@H]3C[C@@H](O)CC(=O)O3)[C@H]21 [lovastatin, lovastatin (Mevinolin)]
- combination index (CI) in combination with dtxA (HCT116/dtxA cells [4]; [13]): smaller than 1
- effect on cytotoxic activity of dtxA (parental HCT116): augmented

Structure (SMILES): COc1ccc(CCN(C)CCCC(C#N)(c2ccc(OC)c(OC)c2)C(C)C)cc1OC (stereo not drawn) [verapamil]
- sensitivity of HCT116/dtxE cells towards dtxE on co-incubation (HCT116/dtxE cells [10]): partly restored
